In patent US20080090834A1, “SELECTIVE AZOLE PDE10A INHIBITOR COMPOUNDS” (Pfizer Inc, priority 2006, published 2008):
Counter-ions that a name gives are not always drawn.

Molecular target: T1, cloned rat PDE10A full-length enzyme (Rattus norvegicus, UniProt Q9QYJ6)
T1 construct: cloned rat PDE10A full-length enzyme grown in transfected Sf9 insect cells; made in house; host or cells: Sf9 insect cells
T1 sequence (Q9QYJ6 1-794): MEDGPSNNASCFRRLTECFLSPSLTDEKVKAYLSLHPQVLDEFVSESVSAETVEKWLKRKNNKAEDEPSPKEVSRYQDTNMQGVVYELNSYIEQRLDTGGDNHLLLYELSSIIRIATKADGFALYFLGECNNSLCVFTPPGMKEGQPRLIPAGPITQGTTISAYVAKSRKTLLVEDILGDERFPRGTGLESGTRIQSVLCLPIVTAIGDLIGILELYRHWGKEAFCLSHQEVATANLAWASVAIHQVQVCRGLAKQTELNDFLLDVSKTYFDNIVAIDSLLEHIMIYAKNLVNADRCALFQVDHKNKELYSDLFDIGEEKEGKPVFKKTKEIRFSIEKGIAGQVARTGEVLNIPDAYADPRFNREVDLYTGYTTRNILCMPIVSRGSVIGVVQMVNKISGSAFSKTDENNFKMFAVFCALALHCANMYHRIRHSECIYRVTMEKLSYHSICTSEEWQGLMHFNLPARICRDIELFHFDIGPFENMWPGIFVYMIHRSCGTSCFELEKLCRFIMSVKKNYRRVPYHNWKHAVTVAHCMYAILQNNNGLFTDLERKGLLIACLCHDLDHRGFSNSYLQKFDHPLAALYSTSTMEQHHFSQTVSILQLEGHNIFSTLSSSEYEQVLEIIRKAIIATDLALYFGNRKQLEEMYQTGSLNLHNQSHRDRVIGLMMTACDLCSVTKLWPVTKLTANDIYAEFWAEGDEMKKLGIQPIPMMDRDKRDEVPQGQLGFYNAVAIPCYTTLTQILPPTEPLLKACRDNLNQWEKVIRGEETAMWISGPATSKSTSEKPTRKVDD
Experiment: PDE10 enzyme inhibition, [3H]cAMP scintillation proximity assay
Format: biochemical
Conditions: rat PDE10A from Sf9 cells, 20 nM [3H]cAMP, SPA beads, 20 minute incubation at room temperature
Procedure: Compounds of the present invention were evaluated for ability to inhibit PDE10 enzyme with the following Assay procedure
The enzyme used in the procedure was cloned rat PDE10A full-length enzyme grown in transfected Sf9 insect cells. Cloned enzyme was extracted from homogenized cell pellets and stored frozen in homogenizing buffer until use. Compounds were initially dissolved in 100% DMSO and diluted out in 20 percent DMSO/water solution. Final concentration of DMSO in the assay was 2 percent as compounds were tested in triplicate in 96 well plates. Compound solution was placed in well, then tritiated cyclic AMP (New England Nuclear NET275) in assay buffer was added at 20 nM concentration. Then PDE10 enzyme in assay buffer of 50 mM Tris, 8.3 mM MgCl2, pH 7.5 at room temperature was added for a final assay volume of 100 ul. Concentration of enzyme was added such that less than 10 percent of [3H]cAMP at 20 nM was converted to detectable end product, [3H]AMP bound to SPA (Scintillation Proximity Assay) beads. Phosphodiesterase scintillation proximity yttrium silicate beads from Amersham Biosciences (RPNQ0150) were added (50 ul at 20 mg/ml) after a 20 minute incubation at room temperature. Zinc sulphate as a component of the beads stops the phosphodiesterase reaction.
Non-specific binding to SPA beads was determined by addition of 1 uM papaverine. Total conversion by enzyme without inhibitor of [3H]cAMP to [3H]AMP, as detected by scintillation of [3H]AMP bound to yttrium silicate beads, was determined in the presence of vehicle-only.

Structure (SMILES)	IC50 [nM]
Cc1cc(-c2nc(-c3cccs3)n(O)c2-c2cnccn2)ccc1-n1ccc2cccnc21 [Example 110, 1-(4-(1-hydroxy-5-(pyrazin-2-yl)-2-(thiophen-2-yl)-1H-imidazol-4-yl)-2-methylphenyl)-1H-pyrrolo[2,3-b]pyridine]	36.6
Clc1ccc(-c2ccc(-c3nc(-c4ccccn4)cn3-c3cncnc3)cc2)cc1Cl [Example 70, 5-(2-(4-(3,4-dichloropheny)phenyl)-4-(pyridin-2-yl)-1H-imidazol-1-yl)pyrimidine]	216
Fc1c(F)c(F)c2c(ccn2-c2ccc(-c3nc(-c4ccccn4)cn3-c3cccnc3)cc2)c1F [Example 38, 4,5,6,7-tetratfluoro-1-(4-(4-(pyridin-2-yl)-1-(pyridin-3-yl)-1H-imidazol-2-yl)phenyl)-1H-indole]	170
COc1ccc(-c2[nH]c(-c3cccs3)nc2-c2ccc(-n3ccc4cc(OC)ccc43)cc2)cc1 [Example 102, 5-methoxy-1-(4-(5-(4-methoxyphenyl)-2-(thiophen-2-yl)-1H-imidazol-4-yl)phenyl)-1H-indole]	15.8
Cc1cc(-n2cc(-c3ccncc3)nc2-c2ccc(-n3ccc4cccnc43)cc2)ccn1 [Example 69, 1-(4-(1-(2-methylpyridin-4-yl-4-(pyridin-4-yl)-1H-imidazol-2-yl)phenyl)-1H-pyrrolo-[2,3-b]pyridinebis-TFA salt]	89.7
c1ccc(-c2nc(-c3cccnc3)n(-c3ccc(-n4ccc5cccnc54)cc3)n2)nc1 [Example 115, 1-(4-(3-(pyridin-2-yl)-5-(pyridine-3-yl)-1H-1,2,4-triazol-1-yl)phenyl)-1H-pyrrolo[2,3-b]pyridine]	17.9
c1ccc(-c2cn(-c3cccnc3)c(-c3ccc(-n4cnc5ncccc54)cc3)n2)nc1 (single isomer, unassigned) [Example 46, 1-(4-(4-(pyridin-2-yl)-1-(pyridin-3-yl)-1H-imidazol-2-yl)phenyl)-1H-imidazo[4,5-b]pyridine bis-trifluororoacetic acid salt]	231
c1ccc(-c2cn(-c3cncnc3)c(-c3ccc(-c4ccncc4)cc3)n2)nc1 [Example 73]	74.3
Cc1ccc(-n2cc(-c3ccccn3)nc2-c2ccc(-n3cnc4ncccc43)cc2)cn1 (single isomer, unassigned) [Example 48]	63.7
Cc1cn(-c2ccc(-c3nc(-c4ccccn4)cn3-c3cccnc3)cc2)cn1 [Example 41, 3-(2-(4-(4-methyl-1H-imidazol-1-yl)phenyl)-4-(pyridin-2-yl)-1H-imidazol-1-yl)pyridine]	293
Cn1ccnc1-c1cn(-c2cncnc2)c(-c2ccc(-n3ccc4cccnc43)cc2)n1 [Example 67]	274
c1cncc(-n2cc(-c3nc4ccccc4s3)nc2-c2ccc(-n3ccc4cccnc43)cc2)c1 [Example 76, 1-(4-(4-benzo[d]thiazol-2-yl)-1-(pyridin-3-yl)-1H-b]pyridine]	544
c1ccc(-c2cn(-c3cccnc3)c(-c3ccc(-n4c(-c5ccccn5)nc5ccccc54)cc3)n2)nc1 [Example 43, 2-(pyridin-2-yl)-1-(4-(4-(pyridin-2-yl)-1-(pyridin-3-yl)-1H-imidazol-2-yl)phenyl)-1H-benzo[d]imidazole]	33.1
Cc1ccc(-n2cc(-c3ccccn3)nc2-c2ccc(-n3ccc4cccnc43)c(C)c2)cn1 [Example 12, 1-(2-methyl-4-(1-(6-methylpyridin-3-yl)-4-(pyridin-2-yl)-1H-imidazol-2-yl)phenyl)-1H-pyrrolo[2,3-b]pyridine]	31.7
c1ccc(-n2nc(-c3ccc(-n4ccc5cccnc54)cc3)c(-c3cccnc3)n2)nc1 [Example 119, 1-(4-(2-(pyridin-2-yl)-5-(pyridin-3-yl)-2H-1,2,3-triazol-4-yl)phenyl)-1H-pyrrolo[2,3-b]pyridine]	134

Compounds with a lower IC50, results first:

IC50 [nM]	Structure (SMILES)
5.5	Cc1ccc(-n2cc(-c3ccccn3)nc2-c2ccc(-n3cnc4cccnc43)cc2)cn1 (single isomer, unassigned) [Example 49, 3-(4-(1-(6-methylpyridin-3-yl)-4-(pyridin-2-yl)-1H-imidazol-2-yl)phenyl)-3H-imidazo[4,5-b]pyridine]
0.305	COc1nc2cccnc2n1-c1ccc(-c2nc(-c3cncs3)cn2-c2ccc(C)nc2)cc1 [Example 116]
1.06	Cc1ccc(-n2cc(-c3ccccn3)nc2-c2ccc(-n3c(C(F)(F)F)nc4cccnc43)cc2)cn1 [Example 58, 2(trifluoromethyl)-3(4-(1-(6-methylpyridin-3-yl)-4-(pyridin-2-yl)-1H-imidazol-2-yl)phenyl)-3H-imidazo[4,5-b]pyridine]
1.48	Cc1ccc(-n2cc(-c3nccs3)nc2-c2ccc(-n3ccc4cccnc43)cc2)cn1 [Example 27, 1-(4-(1-(6-methylpyridin-3-yl)-4-(thiazol-2-yl)-1H-imidazol-2-yl)phenyl)-1H-pyrrolo[2,3-b]pyridine]
0.695	COc1nc2cccnc2n1-c1ccc(-c2nc(-c3cscn3)cn2-c2ccc(C)nc2)cc1 [Example 96, 2-methoxy-3-(4-(1-(6-methylpyridin-3-yl)-4-(thiazol-4-yl)-1H-imidazol-2-yl)phenyl)-3H-imidazo[4,5-b]pyridine]
1.48	c1ccc(-c2cn(-c3ccc(-n4ccnc4)nc3)c(-c3ccc(-n4ccc5cccnc54)cc3)n2)nc1 [Example 8, 1-(4-(1-(6-(1H-imidazol-1-yl)pyridin-3-yl)-4-(pyridin-2-yl)-1H-imidazol-2-yl)phenyl)-1-H-pyrrolo[2,3-b]pyridine]
6.59	Cc1ccc(-n2cc(-c3ccc(F)s3)nc2-c2ccc(-n3ccc4cccnc43)cc2)cn1 [Example 64, 1-(4-(4-(5-fluorothiophen-2-yl)-1-(6-methylpyridin-3-yl)-1H-imidazol-2-yl)phenyl)-1H-pyrrolo[2,3-b]pyridine]
0.748	Cc1ccc(-n2cc(-c3nccs3)nc2-c2ccc(-n3c(=O)[nH]c4cccnc43)cc2)cn1 [Example 118, 3-(4-(1-(6-methylpyridin-3-yl)-4-(thiazol-2-yl)-1H-imidazol-2-yl)phenyl)-1H-imidazo[4,5-b]pyridin-2(3H)-one]
0.741	CCCOc1nc2cccnc2n1-c1ccc(-c2nc(-c3ccccn3)cn2-c2ccc(C)nc2)cc1 [Example 91, 3-(4-(1-(6-methylpyridin-3-yl)-4-(pyridin-2-yl)-1H-imidazol-2-yl)phenyl)-2-propoxy-3H-imidazo[4,5-b]pyridine]
0.388	COc1nc2cccnc2n1-c1ccc(-c2nc(-c3ccccn3)cn2-c2ccc(C)nc2)cc1 [Example 60, 2-methoxy-3-(4-(1-(6-methylpyridin-3-yl)-4-(pyridin-2-yl)-1H-imidazol-2-yl)phenyl)-3H-imidazo[4,5-b]pyridine]
5.82	Cc1ccc(-n2cc(-c3ccccn3)nc2-c2ccc(-n3ccc4cnccc43)cc2)cn1 [Example 54, 1-(4-(1-(6-methylpyridine-3-yl)-4-(pyridin-2-yl)-1H-imidazol-2-yl)phenyl)-1H-pyrrolo[3,2-c]pyridine]
3.91	Cc1ccc(-n2cc(-c3ccccn3)nc2-c2ccc(-n3c(=O)[nH]c4cccnc43)cc2)cn1 [Example 95]
6.44	Cc1ccc(-n2cc(-c3ccccn3)nc2-c2ccc(-n3ncc4ccncc43)cc2)cn1 [Example 56, 1-(4-(1-(6-methylpyridin-3-yl)-4-(pyridin-2-yl)-1H-imidazol-2-yl)phenyl)-1H-pyrazolo[3,4-]pyridine]
2.82	Cc1ccc(-n2cc(-c3ccccn3)nc2-c2ccc(-n3ccc4cc(F)cnc43)cc2)cn1 [Example 21, 5-fluoro-1-(4-(1-(6-methylpyridin-3-yl)-4-(pyridin-2x-yl)-1H-imidazol-2-yl)phenyl)-1H-pyrrolo-[2,3-b]pyridine]
4.62	Cc1cc(-n2cc(-c3ccccn3)nc2-c2ccc(-n3ccc4cccnc43)cc2)ccn1 [Example 5, 1-(4-(1-(2-methylpyridin-4-(pyridin-2-yl)-1H-imidazol-2-yl)-1H-imidazol-2-yl)phenyl)-1H-pyrrolo[2,3-b]pyridine]
